Reference: US20250171423A1, “PHARMACEUTICAL COMPOUNDS FOR THE TREATMENT OF COMPLEMENT MEDIATED DISORDERS” (Achillion Pharmaceuticals, Inc., priority 2020, published 2025)

target: T1, Human complement C1s enzyme (Homo sapiens, UniProt P09871); assay: Human C1s Enzyme Assay; type: biochemical; settings: human C1s 1.16 nM, 5 min preincubation, substrate Z-L-Lys-SBzl 100 μM, A405; read-out: C1s Protease Activity
T1 construct: purified from human serum, Complement Technology, Inc; purchased Complement Technology, Inc; host or cells: human serum
T1 sequence (P09871 438-688 limits assumed): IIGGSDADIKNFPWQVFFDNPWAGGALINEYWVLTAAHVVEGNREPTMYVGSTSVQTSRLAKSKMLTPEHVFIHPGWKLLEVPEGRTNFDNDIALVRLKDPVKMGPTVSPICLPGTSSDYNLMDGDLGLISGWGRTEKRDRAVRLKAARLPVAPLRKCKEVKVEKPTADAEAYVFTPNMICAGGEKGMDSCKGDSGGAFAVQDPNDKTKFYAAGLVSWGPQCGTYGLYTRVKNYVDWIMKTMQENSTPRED
T1 sequence (P09871 16-437 partner limits assumed): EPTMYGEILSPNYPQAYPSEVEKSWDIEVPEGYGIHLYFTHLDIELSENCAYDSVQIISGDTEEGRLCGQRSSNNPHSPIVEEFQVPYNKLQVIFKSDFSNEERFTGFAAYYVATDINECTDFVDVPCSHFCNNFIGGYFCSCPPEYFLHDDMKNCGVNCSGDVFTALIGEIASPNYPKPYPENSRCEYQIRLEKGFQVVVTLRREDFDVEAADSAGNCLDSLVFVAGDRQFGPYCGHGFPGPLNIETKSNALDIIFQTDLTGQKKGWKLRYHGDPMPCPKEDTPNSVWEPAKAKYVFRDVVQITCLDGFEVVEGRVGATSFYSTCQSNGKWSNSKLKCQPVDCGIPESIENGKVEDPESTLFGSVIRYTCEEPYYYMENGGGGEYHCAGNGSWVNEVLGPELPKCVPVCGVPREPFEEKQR
Summary of the method: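 C1s purified from human serum (1.16 nM final) was preincubated with compound for 5 min at room temperature in 50 mM Tris, 1 M NaCl, pH 7.5. Z-L-Lys-SBzl and DTNB were then added at 100 μM each, and A405 was followed for 30 min. IC50 came from nonlinear regression of reaction rates.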

| IC50 [µM] | SMILES |
| --- | --- |
| < 0.1 | N=C(N)c1csc(CNC(=O)[C@@H]2C[C@H](C3CCCCC3)CN2C(=O)CNC(=O)c2ccc(Oc3ccccc3)cc2)c1 [Compound 73, (2S,4R)-N-((4-carbamimidoylthiophen-2-yl)methyl)-4-cyclohexyl-1-((4-phenoxy-benzoyl)glycyl)pyrrolidine-2-carboxamide] |
| > 1 | C[C@@]12C[C@@H]1N(C(=O)CNC(=O)c1ccc(Oc3ccccc3)cc1)[C@H](C(=O)NCc1cc3c(s1)CCN=C3N)C2 [Compound 182, (1S,3S,5S)-N-((4-amino-6,7-dihydrothieno[3,2-c]pyridin-2-yl)methyl)-5-methyl-2-((4-phenoxybenzoyl)glycyl)-2-azabicyclo[3.1.0]hexane-3-carboxamide] |
| < 0.1 | N=C(N)c1csc(CNC(=O)[C@@H]2C[C@@H](Oc3ccccc3)CN2C(=O)CNC(=O)CCCOc2ccccc2)c1 [Compound 69, (2S,4R)-N-((4-carbamimidoylthiophen-2-yl)methyl)-4-phenoxy-1-((4-phenoxy-butanoyl)glycyl)pyrrolidine-2-carboxamide] |
| 0.1 to 1 | C[C@@]12C[C@@H]1N(C(=O)CNC(=O)c1ccc(Oc3ccccc3)cc1)[C@H](C(=O)NCc1cnc(N)s1)C2 [Compound 102, (1S,3S,5S)-N-[(2-amino-1,3-thiazol-5-yl)methyl]-5-methyl-2-{2-[(4-phenoxyphenyl)-formamido]acetyl}-2-azabicyclo[3.1.0]hexane-3-carboxamide] |
| 0.1 to 1 | C[C@@]12C[C@@H]1N(C(=O)CNC(=O)c1ccc(Oc3ccc(P(C)(=O)O)cc3)cc1)[C@H](C(=O)NCc1cc(C(=N)N)cs1)C2 [Compound 53, (4-(4-((2-((1S,3S,5S)-3-(((4-carbamimidoylthiophen-2-yl)methyl)carbamoyl)-5-methyl-2-azabicyclo[3.1.0]hexan-2-yl)-2-oxoethyl)carbamoyl)phenoxy)phenyl)-(methyl)phosphinic acid] |
| 0.1 to 1 | C[C@@]12C[C@@H]1N(C(=O)CNC(=O)c1ccc(Oc3ccccc3)cc1)[C@H](C(=O)NCc1ccc(N)nc1)C2 [Compound 5] |
| > 1 | CNC(=O)C(NC(=O)[C@@H]1C[C@@H](OC(F)F)CN1C(=O)CNC(=O)c1ccc(Oc2ccccc2)cc1)c1cc(C(=N)N)cs1 (stereo partly drawn) [Compound 210, (2S,4R)-N-(1-(4-carbamimidoylthiophen-2-yl)-2-(methylamino)-2-oxoethyl)-4-(difluoromethoxy)-1-((4-phenoxybenzoyl)glycyl)pyrrolidine-2-carboxamide] |
| < 0.1 | C[C@@H](NC(=O)[C@@H]1C[C@@]23COCCC/C=C/CCCCCCCCC(=O)N[C@@H](CCOc4ccccc4)C(=O)NCC(=O)N1[C@H]2C3)c1cc(C(=N)N)cs1 [Compound 250, (1R,19S,25S,28S,E)-N-((R)-1-(4-carbamimidoylthiophen-2-yl)ethyl)-17,20,23-trioxo-19-(2-phenoxyethyl)-3-oxa-18,21,24-triazatricyclo[22.2.2.0^1,25]octacos-7-ene-28-carboxamide] |
| < 0.1 | C[C@@]12C[C@@H]1N(C(=O)CNC(=O)c1ccc(Oc3ccccc3)cc1)[C@H](C(=O)NCc1ncc(C(=N)N)s1)C2 [Compound 235, (1S,3S,5S)-N-((5-carbamimidoylthiazol-2-yl)methyl)-5-methyl-2-((4-phenoxybenzoyl)glycyl)-2-azabicyclo[3.1.0]hexane-3-carboxamide] |
| < 0.1 | N=C(N)c1csc(CNC(=O)[C@@H]2C[C@H](c3ccccc3)CN2C(=O)CNC(=O)CCCOc2ccccc2)c1 [Compound 157, (2S,4R)-N-((4-carbamimidoylthiophen-2-yl)methyl)-1-((4-phenoxybutanoyl)glycyl)-4-phenylpyrrolidine-2-carboxamide] |
| < 0.1 | C[C@@]12C[C@@H]1N(C(=O)CNC(=O)c1ccc(Oc3ccc(S(C)(=N)=O)cc3)cc1)[C@H](C(=O)NCc1cc(C(=N)N)cs1)C2 (stereo partly drawn) [Compound 3, (1S,3S,5S)-N-((4-carbamimidoylthiophen-2-yl)methyl)-5-methyl-2-((4-(4-(S-methyl-sulfonimidoyl)phenoxy)benzoyl)glycyl)-2-azabicyclo[3.1.0]hexane-3-carboxamide] |
| < 0.1 | C[C@@H](NC(=O)[C@@H]1C[C@H](C2CCCCC2)CN1C(=O)CNC(=O)CCCOc1ccccc1)c1cc(C(=N)N)cs1 [Compound 243, (2S,4R)-N-((R)-1-(4-carbamimidoylthiophen-2-yl)ethyl)-4-cyclohexyl-1-((4-phenoxybutanoyl)glycyl)pyrrolidine-2-carboxamide] |
| 0.1 to 1 | C[C@@]12C[C@@H]1N(C(=O)CNC(=O)c1ccc(Oc3ccccc3)cc1)[C@H](C(=O)NCc1ccc(C(=N)N)cn1)C2 [Compound 4] |
| < 0.1 | C[C@@]12C[C@@H]1N(C(=O)CNC1(c3ccc(Oc4ccccc4)cc3)COC1)[C@H](C(=O)NCc1cc(C(=N)N)cs1)C2 [Compound 249, (1S,3S,5S)-N-[(4-carbamimidoylthiophen-2-yl)methyl]-5-methyl-2-(2-{[3-(4-phenoxyphenyl)oxetan-3-yl]amino}acetyl)-2-azabicyclo[3.1.0]hexane-3-carboxamide] |
| > 1 | N=C(N)c1csc([C@H](NC(=O)[C@@H]2CC3(CN2C(=O)CNC(=O)CCCOc2ccccc2)OCCO3)c2ccccc2)c1 [Compound 175, (S)-N-((R)-(4-carbamimidoylthiophen-2-yl)(phenyl)methyl)-7-((4-phenoxybutanoyl)glycyl)-1,4-dioxa-7-azaspiro[4.4]nonane-8-carboxamide] |
| > 1 | Cc1sc(CNC(=O)[C@@H]2C[C@]3(C)C[C@@H]3N2C(=O)CNC(=O)CCCOc2ccccc2)cc1C(=N)N [Compound 216, (1S,3S,5S)-N-((4-carbamimidoyl-5-methylthiophen-2-yl)methyl)-5-methyl-2-((4-phenoxybutanoyl)glycyl)-2-azabicyclo[3.1.0]hexane-3-carboxamide] |
| < 0.1 | C[C@@H](NC(=O)[C@@H]1C[C@](F)(COCCCCCC(=O)O)CN1C(=O)CNC(=O)c1ccc(Oc2ccccc2)cc1)c1cc(C(=N)N)cs1 [Compound 199, 6-(((3R,5S)-5-(((R)-1-(4-carbamimidoylthiophen-2-yl)ethyl)carbamoyl)-3-fluoro-1-((4-phenoxybenzoyl)glycyl)pyrrolidin-3-yl)methoxy)hexanoic acid] |
| < 0.1 | C[C@@H](NC(=O)[C@@H]1C[C@]2(COCCCCCC(=O)O)C[C@@H]2N1C(=O)CNC(=O)CCCOc1ccccc1)c1cc(C(=N)N)cs1 [Compound 169, 6-(((1S,3S,5R)-3-(((R)-1-(4-carbamimidoylthiophen-2-yl)ethyl)carbamoyl)-2-((4-phenoxybutanoyl)glycyl)-2-azabicyclo[3.1.0]hexan-5-yl)methoxy)hexanoic acid] |
| > 1 | C[C@@]12C[C@@H]1N(C(=O)CNC(=O)c1ccc(Oc3ccccc3)cc1)[C@H](C(=O)NC1CCc3c(C(=N)N)csc3C1)C2 (stereo partly drawn) [Compound 258, (1S,3S,5S)-N-(3-carbamimidoyl-4,5,6,7-tetrahydrobenzo[b]thiophen-6-yl)-5-methyl-2-((4-phenoxybenzoyl)glycyl)-2-azabicyclo[3.1.0]hexane-3-carboxamide] |
| > 1 | C[C@@]12C[C@@H]1N(C(=O)CNC(=O)c1ccc(Oc3ccccc3)cc1)[C@H](C(=O)NCc1cc(/C(N)=N/S(N)(=O)=O)cs1)C2 [Compound 205, (1S,3S,5S)-5-methyl-2-((4-phenoxybenzoyl)glycyl)-N-((4-(N-sulfamoylcarbamimidoyl)thiophen-2-yl)methyl)-2-azabicyclo[3.1.0]hexane-3-carboxamide] |
| < 0.1 | C[C@@]12C[C@@H]1N(C(=O)CNC(=O)CCCOc1ccc(S(F)(F)(F)(F)F)cc1)[C@H](C(=O)NCc1cc(C(=N)N)cs1)C2 [Compound 96, (1S,3S,5S)-N-((4-carbamimidoylthiophen-2-yl)methyl)-5-methyl-2-((4-(4-(pentafluoro-λ^6-sulfanyl)phenoxy)butanoyl)glycyl)-2-azabicyclo[3.1.0]hexane-3-carboxamide] |
| 0.1 to 1 | C[C@@H](NC(=O)[C@@H]1C[C@]2(C)C[C@@H]2N1C(=O)CNC(=O)CCCOc1ccc(F)cc1)c1cc(C(=N)N)cs1 [Compound 121, (1S,3S,5S)-N-((R)-1-(4-carbamimidoylthiophen-2-yl)ethyl)-2-((4-(4-fluorophenoxy)butanoyl)glycyl)-5-methyl-2-azabicyclo[3.1.0]hexane-3-carboxamide] |
| 0.1 to 1 | C[C@@]12C[C@@H]1N(C(=O)CNC(=O)c1ccc(Oc3ccccc3)cc1)[C@H](C(=O)N1CCc3c(C(=N)N)csc3C1)C2 [Compound 112, N-(2-((1S,3S,5S)-3-(3-carbamimidoyl-4,5,6,7-tetrahydrothieno[2,3-c]pyridine-6-carbonyl)-5-methyl-2-azabicyclo[3.1.0]hexan-2-yl)-2-oxoethyl)-4-phenoxybenzamide] |
| < 0.1 | N=C(N)c1csc(CNC(=O)[C@@H]2C[C@@]3(CCO3)CN2C(=O)CNC(=O)c2ccc(Oc3ccccc3)cc2)c1 [Compound 194, (4R,7S)-N-((4-carbamimidoylthiophen-2-yl)methyl)-6-((4-phenoxybenzoyl)glycyl)-1-oxa-6-azaspiro[3.4]octane-7-carboxamide] |
